Source: patent US20180251765A1, “HIGH-THROUGHPUT SPLIT APTAMER SCREENING ASSAY” (BELLBROOK LABS, priority 2015, published 2018)
pEC50, pKd: −log10 of the molar value. Where two headings read alike, the source gives them in different places.

What was measured:
[1] = test system: split SAH aptamer P152/P218, Eu construct; test: split aptamer SAH TR-FRET assay, Eu construct; assay type: binding, D. aromatica
[2] = test system: split SAH aptamer P152/P218, Tb construct; test: split aptamer SAH TR-FRET assay, Tb construct; assay type: binding, D. aromatica
Description: The split aptamer SAH detection assay was next formatted for TR-FRET readout. Luminescent lanthanides were attached to P152 of the SAH aptamer via streptavidin-biotin, and organic acceptor fluors were attached to P218 during synthesis. Both Tb and Eu lanthanide chelates (Life Technologies) were tested, as were four different organic fluors with excitation spectra overlapping the lanthanide emission (Alexa 633, Alexa 647, Cy5, and Dylight 650.)
Importantly, the signal was stable for at least 15 h.

Ref-1 riboswitch = test: SAH dependent switch with FP readout, intact riboswitch with fluor-labeled oligo; assay type: binding, R. ferrireducens; conditions: intact Ref-1
Source text: (§1) The native riboswitch signaling mechanism was first leveraged by transducing the conformational switch that occurs upon SAH binding into a fluorescent signal. The goal was to identify an oligonucleotide that would bind to the riboswitch specifically when SAH was present due to the localized conformational disruption it causes (FIG. 3A). Using two well characterized riboswitches, Ref-1 (SEQ ID NO:1) and Dar-1 (SEQ ID NO:4) (Wang et al., 2008, Mol. Cell. 29(6):691-702), an unbiased, empirical approach was taken by testing a panel of 8-10 bp oligos that covered the entire sequence of each riboswitch. The oligos were labeled with fluors at the 5′ end so that binding could be detected by the increase in fluorescence polarization.
A robust, dose dependent FP shift under optimized conditions was observed, which was quite reproducible. However, the affinity of the riboswitch for SAH was much lower than the low nanomolar level expected, and it decreased further over time (see FIG. 3B and inset table for representative data with Dar-1). […] Moreover, the selectivity for SAH vs. SAM was much poorer than expected, less than 50-fold for both Dar-1 and Ref-1 rather than the 1000-fold-plus selectivity reported for the native riboswitch (Wang et al., 2008, Mol. Cell. 29(6):691-702). […]

[3] = test system: split Dar-1 riboswitch (P152/P218); test: split aptamer SAH FP assay; assay type: binding, D. aromatica
Description: Based on the predicted folding of the Dar-1 sequence and imputed SAH binding interactions (Wang et al., 2008, Mol Cell. 29(6):691-702), two versions of a split Dar-1 riboswitch were tested, comprised of either a 59 or 52 base 5′ element (P159 of SEQ ID NO:6 or P152 of SEQ ID NO:7) and the remaining 18 base 3′ element (P218 of SEQ ID NO:8). […] For simplicity, EC50 values were used as an approximation of ligand dissociation constants, or Kd. […] This is the first example of a split aptamer sensor with FP readout.
Selectivity vs. SAM is a critical parameter, as measurement of HMT enzyme activity requires detection of SAH in an excess of SAM. […] Thus, the selectivity for SAH is at least 200-fold and likely higher; however, measurements are limited by contamination of SAM with SAH. The combination of sensitivity and selectivity is reflected in a standard curve mimicking an HMT enzyme reaction, in which 200 nM SAM was decreased as SAH was added proportionately (FIG. 4D). To quantitatively assess the robustness of the split aptamer FP assay, the standard curve was done with sixteen replicates to allow determination of Z′ values, a commonly used HTS assay statistic that measures that incorporates both dynamic range and data variability (Zhang et al., 1999, J Biomol. Screen. 4(2):67-73). […] The Z′ measured in this Example was 0.56, indicative of a high quality assay.

[4] = target: SAH riboswitch from D. aromatica; conditions: cited from earlier work
[5] = target: SAH riboswitch from R. soanacearum; conditions: isothermal titration calorimetry; cited from earlier work
Dar-1 riboswitch = test: SAH dependent switch with FP readout, intact riboswitch with fluor-labeled oligo; assay type: binding, D. aromatica; conditions: for pEC50: FP dose response
Source text: as §1
A robust, dose dependent FP shift under optimized conditions was observed, which was quite reproducible. However, the affinity of the riboswitch for SAH was much lower than the low nanomolar level expected, and it decreased further over time (see FIG. 3B and inset table for representative data with Dar-1). […] Moreover, the selectivity for SAH vs. SAM was much poorer than expected, less than 50-fold for both Dar-1 and Ref-1 rather than the 1000-fold-plus selectivity reported for the native riboswitch (Wang et al., 2008, Mol. Cell. 29(6):691-702). Despite significant effort to understand and eliminate the unstable nature of the SAH-riboswitch interaction, including confirming that both the riboswitch and the SAH were not degrading over time, a stable, high affinity SAH dependent signal was unable to be obtained. Thus, a split aptamer approach was next explored.

PRMT1 = PRMT1 (Homo sapiens, UniProt Q99873); conditions: read-out: Km (SAM); plot of velocity vs. SAM, FIG. 5F
Sequence of PRMT1 (Q99873 whole entry, species assumed): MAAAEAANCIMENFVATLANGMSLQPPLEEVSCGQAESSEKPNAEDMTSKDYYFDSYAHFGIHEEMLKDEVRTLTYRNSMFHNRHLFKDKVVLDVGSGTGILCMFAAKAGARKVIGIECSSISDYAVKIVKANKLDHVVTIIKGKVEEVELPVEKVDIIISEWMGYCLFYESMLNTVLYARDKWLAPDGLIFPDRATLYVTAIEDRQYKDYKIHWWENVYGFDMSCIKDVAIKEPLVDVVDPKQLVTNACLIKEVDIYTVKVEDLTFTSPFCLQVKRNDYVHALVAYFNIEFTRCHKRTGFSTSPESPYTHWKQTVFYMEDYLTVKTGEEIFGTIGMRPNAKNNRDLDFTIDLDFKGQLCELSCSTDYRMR

[6] = test system: RNA aptamer for theophylline; conditions: on the basis of a single methyl group; cited from earlier work
[7] = target: dimethyl Arg in Histone H3 (H3R8Me2) (Homo sapiens, UniProt P68431); conditions: cited from earlier work
[8] = target: histone H4 acetylated at lysine 16 (H4K16Ac) (Homo sapiens, UniProt P62805); conditions: cited from earlier work

Nc1ncnc2c1ncn2[C@@H]1O[C@H](CSCC[C@H](N)C(=O)O)[C@@H](O)[C@H]1O [SAH, S-adenosylhomocysteine]
pEC50 [1]: 7.80
pEC50 [2]: 7.64
selectivity for SAH vs. SAM (Ref-1 riboswitch): less than 50 fold
pEC50 ([3]; from FP dose response curves FIG. 4B, used as approximation of Kd): 7.60 to 7.70
selectivity for SAH vs. SAM ([3]; limited by contamination of SAM with SAH): at least 200 fold
pKd ([4]; equilibrium binding analysis): 7.70
pKd [5]: 7.52
pEC50 (Dar-1 riboswitch; after 3 h, read-out: EC50 for SAH after 3 h): 5.72
pEC50 (Dar-1 riboswitch; initial reading, read-out: initial EC50 for SAH): 6.33
selectivity for SAH vs. SAM (Dar-1 riboswitch; intact Dar-1): less than 50 fold

C[S+](CC[C@H](N)C(=O)[O-])C[C@H]1O[C@@H](n2cnc3c(N)ncnc32)[C@H](O)[C@@H]1O (stereo partly drawn) [SAM, S-adenosylmethionine]
selectivity for SAH versus SAM (affinity for SAM fold lower) ([4]; native riboswitch): at least 1000 fold
Km (PRMT1): 0.014 µM

Cn1c(=O)c2[nH]cnc2n(C)c1=O [theophylline]
selectivity against caffeine [6]: more than 10^4 fold

H3R8Me2 aptamer: 50 base RNA aptamer developed for dimethyl Arg in Histone H3 (GAUGGGUCAGCAUGUAGCCAGGCAGGGCCGUGUGAGCUUGUGCUGAUGUG; RNA, backbone and methylation of C not given here)
pKd ([7]; read-out: affinity for the target modified peptide): 7.92
selectivity for a similar histone PTM (H3K9Me2) ([7]; vs H3K9Me2): 8.1 fold
selectivity for the unmodified peptide ([7]; vs unmodified peptide): 3.5 fold

H4K16Ac aptamer: 48 base DNA aptamer for histone H4 acetylated at lysine 16 (AGACGTAAGTTAATTGGACTTGGTCGTGTGCGGCACAGCGATTGAAAT; DNA, backbone and methylation of C not given here)
selectivity versus Histone H4 acetylation at K8 or unmodified Histone H4 sequence [8]: more than 2,000 fold
pKd ([8]; read-out: Kd for target PTM): 7.68
